Results on six compounds are retold here after patent US12528814B2, “Bifunctional degraders of interleukin-1 receptor-associated kinases and therapeutic use thereof” (NURIX THERAPEUTICS, INC., priority 2020, dated 2026).

Read-outs that look alike come from different tables or passages of the source.

By IC50 is commonly meant the concentration that inhibits the measured activity by half. Usually DC50 stands for the concentration giving 50% degradation. As a reminder, the Dmax is the greatest extent of degradation seen.

The target in assay [1] is T1, IRAK4 (Homo sapiens (Human), UniProt Q9NWZ3). The assay can be described thus: IRAK4 Biochemical HTRF Kinase Assay. The conditions noted are these: read-out: IRAK4 HTRF biochemical: IC50. In a few lines:
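IC50 values derive from non-linear regression of sixteen concentrations in duplicate. Kinase reaction ran 90 min at ambient temperature after adding 5 μM STK-S1 substrate, 10 mM ATP and 10 mM MgCl2 (reaction-solution levels, pre-dilution to 10 μl); phospho-peptide detected by HTRF after 60 min.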
Background: Time-resolved FRET reads energy transfer from a long-lived donor to a nearby acceptor.
Target sequence in this assay (Q9NWZ3 whole entry, species assumed): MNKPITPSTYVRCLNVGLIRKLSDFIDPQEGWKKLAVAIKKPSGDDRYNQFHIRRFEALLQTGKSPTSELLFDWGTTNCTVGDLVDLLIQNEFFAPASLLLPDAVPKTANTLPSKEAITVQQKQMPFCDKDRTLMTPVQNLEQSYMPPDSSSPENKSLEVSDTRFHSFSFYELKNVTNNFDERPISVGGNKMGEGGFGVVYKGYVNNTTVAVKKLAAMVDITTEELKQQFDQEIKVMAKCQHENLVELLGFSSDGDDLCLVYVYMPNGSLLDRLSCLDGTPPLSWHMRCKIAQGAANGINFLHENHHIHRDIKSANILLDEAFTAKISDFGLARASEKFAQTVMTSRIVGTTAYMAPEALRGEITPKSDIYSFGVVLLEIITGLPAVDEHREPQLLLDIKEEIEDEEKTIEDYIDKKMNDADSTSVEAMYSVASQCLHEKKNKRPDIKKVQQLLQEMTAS

Assay [2] has as its target T1, IRAK4. The assay can be described thus: IRAK4 Degradation HiBiT Assay. The conditions noted are these: HiBiT-tagged Jurkat cells, 4 hrs; for DC50: read-out: Cellular IRAK4 HiBiT: DC50; for Dmax: Jurkat. On the technique in general: The HiBiT peptide binds its large partner to form an active luciferase.
Target sequence in this assay (Q9NWZ3 whole entry): as the sequence (Q9NWZ3 whole entry, species assumed) above
Where [3] appears, read: read-out: Cellular IRAK4 HiBiT: Dmax, Table 5, multiple runs.

Consider `CNc1cc(-c2ccc3cc(C#N)cnn23)ncc1-c1nnc(N2CCN(C(=O)C3CCN(c4cccc5c4C(=O)N(C4CCC(=O)NC4=O)C5=O)CC3)CC2)s1` (centres unmarked) [Example 89, 7-(5-(5-(4-(1-(2-(2,6-dioxopiperidin-3-yl)-1,3-dioxoisoindolin-4-yl)piperidine-4-carbonyl)piperazin-1-yl)-1,3,4-thiadiazol-2-yl)-4-(methylamino)pyridin-2-yl)pyrrolo[1,2-b]pyridazine-3-carbonitrile], for which, at IRAK4 [1] (Table 5, multiple runs), the half-inhibitory concentration (IC50) worked out at 0.9 nM. In addition, the half-maximal degradation concentration (DC50) on IRAK4 [2] (Table 5, multiple runs) is more than 9980 nM.
Turning to `CC(C)Nc1cc(-c2ccc3cc(C#N)cnn23)ncc1-c1nnc(N2CCN(C3CCN(C(=O)CNc4cccc5c4C(=O)N(C4CCC(=O)NC4=O)C5=O)CC3)CC2)s1` (centres unmarked) [Example 74, 7-(5-(5-(4-(1-((2-(2,6-dioxopiperidin-3-yl)-1,3-dioxoisoindolin-4-yl)glycyl)piperidin-4-yl)piperazin-1-yl)-1,3,4-thiadiazol-2-yl)-4-(isopropylamino)pyridin-2-yl)pyrrolo[1,2-b]pyridazine-3-carbonitrile], the IC50 on IRAK4 [1] (Table 5, multiple runs) is 2.5 nM. Also, at IRAK4 [2] (setting [3]), the Dmax is 82%. The DC50 on IRAK4 [2] (Table 5, multiple runs) worked out at 28.9 nM.
In the case of `CNc1cc(-c2ccc3cc(C#N)cnn23)ncc1-c1nnc([C@H]2CC[C@H](N(C)CC3CCN(c4ccc5c(=O)n(C6CCC(=O)NC6=O)ccc5c4)CC3)CC2)s1` (some centres unmarked) [Example 170, 7-(5-(5-((1r,4r)-4-(((1-(2-(2,6-dioxopiperidin-3-yl)-1-oxo-1,2-dihydroisoquinolin-6-yl)piperidin-4-yl)methyl)(methyl)amino)cyclohexyl)-1,3,4-thiadiazol-2-yl)-4-(methylamino)pyridin-2-yl)pyrrolo[1,2-b]pyridazine-3-carbonitrile], the half-maximal inhibitory concentration (IC50) at IRAK4 [1] (Table 5, multiple runs) came to 0.5 nM. In addition, the Dmax at IRAK4 [2] (setting [3]) was determined as 103%. Moreover, on IRAK4 [2] (Table 5, multiple runs), the DC50 is 29.3 nM.
On the same counts, the results for `CNc1cc(-c2ccc3cc(C#N)cnn23)ncc1-c1nnc([C@H]2CC[C@@H](NC(=O)CCOCCOCCOCCNc3cccc4c3C(=O)N(C3CCC(=O)NC3=O)C4=O)CC2)s1` (some centres unmarked) [Example 117, N-((1s,4s)-4-(5-(6-(3-cyanopyrrolo[1,2-b]pyridazin-7-yl)-4-(methylamino)pyridin-3-yl)-1,3,4-thiadiazol-2-yl)cyclohexyl)-3-(2-(2-(2-((2-(2,6-dioxopiperidin-3-yl)-1,3-dioxoisoindolin-4-yl)amino)ethoxy)ethoxy)ethoxy)propanamide] are 1.2 nM, 20% and 27.1 nM.
For `CNc1cc(-c2ccc3cc(C#N)cnn23)ncc1-c1nnc(C23CCC(NC(=O)CCCC(=O)N[C@H](C(=O)N4C[C@H](O)C[C@H]4C(=O)NCc4ccc(-c5scnc5C)cc4)C(C)(C)C)(CC2)CC3)s1` [Example 141, N1-(4-(5-(6-(3-cyanopyrrolo[1,2-b]pyridazin-7-yl)-4-(methylamino)pyridin-3-yl)-1,3,4-thiadiazol-2-yl)bicyclo[2.2.2]octan-1-yl)-N5-((S)-1-((2S,4R)-4-hydroxy-2-((4-(4-methylthiazol-5-yl)benzyl)carbamoyl)pyrrolidin-1-yl)-3,3-dimethyl-1-oxobutan-2-yl)glutaramide] the same measures were 1.4 nM, 133% and 1910 nM.
With `CC(C)Nc1cc(-c2ccc3cc(C#N)cnn23)ncc1-c1nnc(N2CCN(C(=O)C3CCN(C[C@H]4CCN(c5ccc6c(c5)C(=O)N(C5CCC(=O)NC5=O)C6=O)C4)CC3)CC2)s1` (stereo partly drawn) [Example 12, 7-(5-(5-(4-(1-(((3R)-1-(2-(2,6-dioxopiperidin-3-yl)-1,3-dioxoisoindolin-5-yl)pyrrolidin-3-yl)methyl)piperidine-4-carbonyl)piperazin-1-yl)-1,3,4-thiadiazol-2-yl)-4-(isopropylamino)pyridin-2-yl)pyrrolo[1,2-b]pyridazine-3-carbonitrile], the half-maximal inhibitory concentration (IC50) came out at 1.2 nM on IRAK4 [1] (Table 4) and 1.2 nM on IRAK4 [1] (Table 5, multiple runs). In addition, the Dmax worked out at 92% at IRAK4 [2] (read-out: Cellular IRAK4 HiBiT: Dmax, Table 4) and 91% on IRAK4 [2] (setting [3]). The 50% degradation concentration (DC50) on IRAK4 [2] (Table 4) came out at 108 nM; at IRAK4 [2] (Table 5, multiple runs), 98.1 nM.
